Reference: ChEMBL document CHEMBL6127066, “Pegylation enhances the anti-osteoporosis activity of acacetin in both ovariectomized and LPS-stimulated mice” (Bioorg Med Chem, 2024)
Activity calls are given as the source filed them.

Legend:
[1] = Drug uptake in male C57BL/6J mouse serum assessed as increase in acacetin level at 93.6 mg/kg, ip measured after 10 mins; assay type: ADME, organism-based; settings: in vivo
[2] = tested on: BMDM; experiment: Anti-osteoclastogenesis activity in RANKL-induced mouse BMDM cells assessed as downregulation of Ctsk-mRNA expression at 10 uM measured after 4 days by RT-PCR analysis; assay type: functional, cell-based; settings: time 4.0 day
[3] = species: Mus musculus; experiment: Anti-osteoporosis activity LPS induced male C57BL/6J mouse model assessed as attenuation of number of osteoclast per unit of trabecular bone area by TRAP staining based analysis; assay type: functional, organism-based
[4] = tested on: BMDM; experiment: Anti-osteoclastogenesis activity in RANKL-induced mouse BMDM cells assessed as reduction in number of TRAP-positive cells at 10 uM measured after 4 days by TRAP staining based analysis; assay type: functional, cell-based; settings: time 4.0 day
[5] = tested on: Mus musculus; experiment: Anti-osteoporosis activity in OVX-induced […] C57BL/6J mouse model assessed as improvement in BMD in femur at 9.36 mg/kg measured every three days for 7 weeks by Micro-CT 3D scanning analysis; assay type: functional, organism-based
[6] = species: Mus musculus; experiment: Anti-osteoporosis activity LPS induced male C57BL/6J mouse model assessed as increase in density of cancellous bone trabeculae in femur by H and E staining based analysis; assay type: functional, organism-based
[7] = tested on: BMDM; experiment: Anti-osteoclastogenesis activity in RANKL-induced mouse BMDM cells assessed as reduction in TRAP-positive area at 10 uM measured after 4 days by TRAP staining based analysis; assay type: functional, cell-based; settings: time 4.0 day
[8] = species: Mus musculus; experiment: Anti-osteoporosis activity LPS induced male C57BL/6J mouse model assessed as reduction of CTX-I level by ELISA method; assay type: functional, organism-based
[9] = tested on: BMDM; experiment: Anti-osteoclastogenesis activity in RANKL-induced mouse BMDM cells assessed as downregulation of Fos mRNA expression at 10 uM measured after 4 days by RT-PCR analysis; assay type: functional, cell-based; settings: time 4.0 day
[10] = tested on: Mus musculus; experiment: Anti-osteoporosis activity in OVX-induced […] C57BL/6J mouse model assessed as improvement in trabecular thickness in femur at 9.36 mg/kg measured every three days for 7 weeks by Micro-CT 3D scanning analysis; assay type: functional, organism-based
[11] = tested on: Mus musculus; experiment: Anti-osteoporosis activity LPS induced male C57BL/6J mouse model assessed as increase in trabecular number in femur at 9.36 mg/kg measured every 2 days for 12 day by Micro-CT 3D scanning method; assay type: functional, organism-based
[12] = tested on: Mus musculus; experiment: Anti-osteoporosis activity in OVX-induced […] C57BL/6J mouse model assessed as improvement in trabecular number in femur at 9.36 mg/kg measured every three days for 7 weeks by Micro-CT 3D scanning analysis; assay type: functional, organism-based
[13] = tested on: Mus musculus; experiment: Anti-osteoporosis activity in OVX-induced […] C57BL/6J mouse model assessed as improvement in trabecular bone volume fraction in femur at 9.36 mg/kg measured every three days for 7 weeks by Micro-CT 3D scanning analysis; assay type: functional, organism-based
[14] = tested on: BMDM; experiment: Anti-osteoclastogenesis activity in RANKL-induced mouse BMDM cells assessed as downregulation of Acp mRNA expression at 10 uM measured after 4 days by RT-PCR analysis; assay type: functional, cell-based; settings: time 4.0 day
[15] = tested on: BMDM; experiment: Anti-osteoclastogenesis activity in RANKL-induced mouse BMDM cells assessed as downregulation of TRAP mRNA expression at 10 uM measured after 4 days by RT-PCR analysis; assay type: functional, cell-based; settings: time 4.0 day
[16] = tested on: RAW264.7; experiment: Antiinflammatory activity in LPS-induced mouse RAW264.7 cells assessed as inhibition of Il6 mRNA expression at 10 uM preincubated for 3 hrs followed by LPS stimulation and measured after 6 hrs by RT-PCR analysis; assay type: functional, cell-based; settings: time 9.0 hrs
[17] = tested on: RAW264.7; experiment: Antiinflammatory activity in LPS-induced mouse RAW264.7 cells assessed as inhibition of Tnf mRNA expression at 10 uM preincubated for 3 hrs followed by LPS stimulation and measured after 6 hrs by RT-PCR analysis; assay type: functional, cell-based; settings: time 9.0 hrs
[18] = Cytotoxicity against mouse BMDM cells at <20 uM measured after 48 to 96 hrs by CCK-8 method; assay type: toxicity, cell-based; settings: time 48-96 hrs
[19] = tested on: Mus musculus; experiment: Anti-osteoporosis activity LPS induced male C57BL/6J mouse model assessed as increase in trabecular bone volume fraction in femur at 9.36 mg/kg measured every 2 days for 12 day by Micro-CT 3D scanning method; assay type: functional, organism-based
[20] = species: Mus musculus; experiment: Anti-osteoporosis activity OVX-induced […] C57BL/6J mouse model assessed as attenuation of number of osteoclast by TRAP staining based analysis; assay type: functional, organism-based
[21] = species: Mus musculus; experiment: Anti-osteoporosis activity OVX-induced […] C57BL/6J mouse model assessed as reduction of CTX-I level by ELISA method; assay type: functional, organism-based
[22] = species: Mus musculus; experiment: Anti-osteoporosis activity OVX-induced […] C57BL/6J mouse model assessed as reduction of trabecular bone in femur by H and E staining based analysis; assay type: functional, organism-based
[23] = tested on: Mus musculus; experiment: Anti-osteoporosis activity LPS induced male C57BL/6J mouse model assessed as increase in BMD in femur at 5 mg/kg measured every 2 days for 12 day by Micro-CT 3D scanning method; assay type: functional, organism-based
[24] = tested on: Mus musculus; experiment: Anti-osteoporosis activity in OVX-induced […] C57BL/6J mouse model assessed as improvement in trabecular number in femur at 5 mg/kg measured every three days for 7 weeks by Micro-CT 3D scanning analysis; assay type: functional, organism-based
[25] = tested on: Mus musculus; experiment: Anti-osteoporosis activity in OVX-induced […] C57BL/6J mouse model assessed as improvement in BMD in femur at 5 mg/kg measured every three days for 7 weeks by Micro-CT 3D scanning analysis; assay type: functional, organism-based
[26] = tested on: Mus musculus; experiment: Anti-osteoporosis activity in OVX-induced […] C57BL/6J mouse model assessed as improvement in trabecular thickness in femur at 5 mg/kg measured every three days for 7 weeks by Micro-CT 3D scanning analysis; assay type: functional, organism-based
[27] = tested on: Mus musculus; experiment: Anti-osteoporosis activity LPS induced male C57BL/6J mouse model assessed as increase in trabecular bone volume fraction in femur at 5 mg/kg measured every 2 days for 12 day by Micro-CT 3D scanning method; assay type: functional, organism-based
[28] = tested on: Mus musculus; experiment: Anti-osteoporosis activity LPS induced male C57BL/6J mouse model assessed as increase in trabecular number in femur at 5 mg/kg measured every 2 days for 12 day by Micro-CT 3D scanning method; assay type: functional, organism-based
[29] = Drug uptake in male C57BL/6J mouse serum assessed as increase in acacetin level at 50 mg/kg, ip measured after 10 mins; assay type: ADME, organism-based; settings: in vivo
[30] = tested on: Mus musculus; experiment: Anti-osteoporosis activity in OVX-induced […] C57BL/6J mouse model assessed as improvement in trabecular bone volume fraction in femur at 5 mg/kg measured every three days for 7 weeks by Micro-CT 3D scanning analysis; assay type: functional, organism-based
[31] = tested on: Mus musculus; experiment: Anti-osteoporosis activity LPS induced male C57BL/6J mouse model assessed as increase in trabecular thickness in femur at 5 mg/kg measured every 2 days for 12 day by Micro-CT 3D scanning method; assay type: functional, organism-based

COCCOCCOCCOCCOCC(=O)Oc1cc(O)c2c(=O)cc(-c3ccc(OC)cc3)oc2c1
3528.82 ng/mL: Drug uptake [1]
Non-Toxic: Activity [18]
active: Activity [2] | Activity [3] | Activity [4] | Activity [5] | Activity [6] | Activity [7] | Activity [8] | Activity [9] | Activity [10] | Activity [11] | Activity [12] | Activity [13] | Activity [14] | Activity [15] | Activity [16] | Activity [17] | Activity [19] | Activity [20] | Activity [21] | Activity [22]

COc1ccc(-c2cc(=O)c3c(O)cc(O)cc3o2)cc1 [ACACETIN]
Non-Toxic: Activity [18]
active: Activity [23] | Activity [2] | Activity [24] | Activity [3] | Activity [25] | Activity [4] | Activity [26] | Activity [27] | Activity [6] | Activity [7] | Activity [28] | Activity [9] | Activity [14] | Activity [15] | Activity [20] | Activity [30] | Activity [31] | Activity [22]
489.59 ng/mL: Drug uptake [29]
